According to patent publication US12668600B2 (Kumquat Biosciences Inc., priority 2023, dated 2026):

Tests used:
Assay type in all cases: biochemical
[1] = molecular target: T1, KRAS G12D (Homo sapiens, UniProt P01116, G12D); test: HTRF KRAS-SOS1 interaction assay, KRAS G12D; details: binned ≤2 μM / >2 μM, read-out: Inhibition of KRAS G12D (IC50)
T1 construct: made in house; host or cells: E. coli, e.g. BL21 (DE3)
Summary of the method: (§1)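 Read-out: HTRF ratio 665/620 nm after ≥10 min incubation of compound with GST-KRAS/anti-GST-Eu and His-hSOS1/anti-6His-XL665. Duplicate dose series, 10 μM down to 0.01 μM. Buffer HEPES pH 7.4, NaCl, DTT, BSA, Igepal.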

[2] = molecular target: T2, KRAS WT (Homo sapiens, UniProt P01116); test: HTRF KRAS-SOS1 interaction assay, wildtype KRAS; details: binned ≤2 μM / >2 μM, read-out: Inhibition of KRAS WT (IC50)
T2 construct: made in house; host or cells: E. coli, e.g. BL21 (DE3)
T2 sequence (P01116 1-188 isoform P01116-2): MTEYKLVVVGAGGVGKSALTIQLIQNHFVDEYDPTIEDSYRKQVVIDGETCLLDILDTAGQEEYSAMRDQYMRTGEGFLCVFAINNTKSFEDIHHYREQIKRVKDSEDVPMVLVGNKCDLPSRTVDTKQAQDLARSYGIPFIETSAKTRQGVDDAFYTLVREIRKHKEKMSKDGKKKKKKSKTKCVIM
Summary of the method: as §1

[3] = molecular target: T3, KRAS G12V (Homo sapiens, UniProt P01116, G12V); test: HTRF KRAS-SOS1 interaction assay, KRAS G12V; details: binned ≤2 μM / >2 μM, read-out: Inhibition of KRAS G12V (IC50)
T3 construct: made in house; host or cells: E. coli, e.g. BL21 (DE3)
T3 sequence (P01116 1-188 isoform P01116-2 G12V): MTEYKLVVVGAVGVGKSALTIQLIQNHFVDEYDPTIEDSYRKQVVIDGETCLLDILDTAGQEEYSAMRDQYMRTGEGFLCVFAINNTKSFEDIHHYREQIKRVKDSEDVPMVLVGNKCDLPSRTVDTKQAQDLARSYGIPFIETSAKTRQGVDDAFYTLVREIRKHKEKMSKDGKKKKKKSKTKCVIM
Summary of the method: as §1

[4] = molecular target: T4, KRAS G12S (Homo sapiens, UniProt P01116, G12S); test: HTRF KRAS-SOS1 interaction assay, KRAS G12S; details: binned ≤2 μM / >2 μM, read-out: Inhibition of KRAS G12S (IC50)
T4 construct: made in house; host or cells: E. coli, e.g. BL21 (DE3)
T4 sequence (P01116 1-188 isoform P01116-2 G12S): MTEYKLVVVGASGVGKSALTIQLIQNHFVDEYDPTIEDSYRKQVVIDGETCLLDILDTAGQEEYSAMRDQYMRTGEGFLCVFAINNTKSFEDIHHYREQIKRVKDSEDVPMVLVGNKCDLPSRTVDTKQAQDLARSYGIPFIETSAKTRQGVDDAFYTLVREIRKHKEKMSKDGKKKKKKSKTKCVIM
Summary of the method: as §1

T1 sequence (P01116 1-188 isoform P01116-2 G12D): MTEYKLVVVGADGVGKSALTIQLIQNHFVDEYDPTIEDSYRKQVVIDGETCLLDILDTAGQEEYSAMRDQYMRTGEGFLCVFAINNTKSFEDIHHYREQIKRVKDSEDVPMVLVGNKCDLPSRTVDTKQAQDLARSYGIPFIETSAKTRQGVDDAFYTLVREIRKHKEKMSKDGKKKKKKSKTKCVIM

Structure (SMILES)	IC50 [1]	IC50 [2]	IC50 [3]	IC50 [4]
CCO/N=C/C1CN2CCC[C@@]2(COc2nc3c4c(c(Cl)c(-c5ccc(F)c6sc(N)c(C#N)c56)c(F)c4n2)OCCN3[C@H](C)c2cccnc2N)C1 (mixture of isomers) [Compound 711, 2-amino-4-(4-((R)-1-(2-aminopyridin-3-yl)ethyl)-8-chloro-2-(((7aS)-2-((E)-(ethoxyimino)methyl)tetrahydro-1H-pyrrolizin-7a(5H)-yl)methoxy)-10-fluoro-5,6-dihydro-4H-[1,4]oxazepino[5,6,7-de]quinazolin-9-yl)-7-fluorobenzo[b]thiophene-3-carbonitrile]	≤ 2 µM	≤ 2 µM	≤ 2 µM	≤ 2 µM
C[C@H](c1cc(C2CC2)cnc1N)N1CCOc2c(Cl)c(-c3ccc(F)c4sc(N)c(C#N)c34)c(F)c3nc(OC[C@@]45CCCN4C[C@H](F)C5)nc1c23 [Compound 738, 2-amino-4-(4-((R)-1-(2-amino-5-cyclopropylpyridin-3-yl)ethyl)-8-chloro-10-fluoro-2-(((2R,7aS)-2-fluorotetrahydro-1H-pyrrolizin-7a(5H)-yl)methoxy)-5,6-dihydro-4H-[1,4]oxazepino[5,6,7-de]quinazolin-9-yl)-7-fluorobenzo[b]thiophene-3-carbonitrile]	≤ 2 µM	≤ 2 µM	≤ 2 µM	≤ 2 µM
N#Cc1c(N)sc2c(F)ccc(-c3c(C(F)(F)F)c4c5c(nc(OC[C@@]67CCCN6C[C@H](F)C7)nc5c3F)N([C@H](CCC3CC(F)(F)C3)c3cccnc3N)CCO4)c12 (single isomer, unassigned) [Compound 689]	> 2 µM	≤ 2 µM	≤ 2 µM	≤ 2 µM
C[C@H](c1cc(F)cnc1N)N1CCOc2c(C(F)(F)F)c(-c3ccc(F)c4sc(N)c(C#N)c34)c(F)c3nc(OC[C@@]45CCCN4C[C@H](F)C5)nc1c23 (single isomer, unassigned) [Compound 682]	> 2 µM	> 2 µM	> 2 µM	> 2 µM
C#Cc1c(F)ccc2cc(O)cc(-c3nc4c5c(nc(OC[C@@H]6CCCN6C)nc5c3F)N(C(C)c3cccnc3N)CCO4)c12 (single isomer, unassigned) [Compound 728]	≤ 2 µM	≤ 2 µM	≤ 2 µM	≤ 2 µM
N#Cc1c(N)sc2c(F)ccc(-c3c(Cl)c4c5c(nc(OC[C@@]67CCCN6C[C@H](F)C7)nc5c3F)N([C@H](C#CC3CC3)c3cccnc3N)CCO4)c12 [Compound 609, 2-amino-4-(4-((R)-1-(2-aminopyridin-3-yl)-3-cyclopropylprop-2-yn-1-yl)-8-chloro-10-fluoro-2-(((2R,7aS)-2-fluorotetrahydro-1H-pyrrolizin-7a(5H)-yl)methoxy)-5,6-dihydro-4H-[1,4]oxazepino[5,6,7-de]quinazolin-9-yl)-7-fluorobenzo[b]thiophene-3-carbonitrile]	≤ 2 µM	≤ 2 µM	≤ 2 µM	≤ 2 µM
C[C@H](c1cncnc1N)N1CCOc2c(C(F)(F)F)c(-c3ccc(F)c4sc(N)c(C#N)c34)c(F)c3nc(OC[C@@]45CCCN4C[C@H](F)C5)nc1c23 (single isomer, unassigned) [Compound 777]	≤ 2 µM	≤ 2 µM	≤ 2 µM	≤ 2 µM
CC(=O)c1c(F)ccc2cc(O)cc(-c3nc4c5c(nc(OC[C@@H]6CCCN6C)nc5c3F)N(C(C)c3cccnc3N)CCO4)c12 (mixture of isomers) [Compound 801, 1-(8-(10-(1-(2-aminopyridin-3-yl)ethyl)-4-fluoro-2-(((S)-1-methylpyrrolidin-2-yl)methoxy)-9,10-dihydro-8H-7-oxa-1,3,6,10-tetraazacyclohepta[de]naphthalen-5-yl)-2-fluoro-6-hydroxynaphthalen-1-yl)ethan-1-one]	≤ 2 µM	≤ 2 µM	≤ 2 µM	≤ 2 µM
Cc1cnc(N)c([C@@H](C)N2CCOc3c(C(F)(F)F)c(-c4ccc(F)c5sc(N)c(C#N)c45)c(F)c4nc(OC[C@@]56CCCN5C[C@H](F)C6)nc2c34)n1 (single isomer, unassigned) [Compound 718]	> 2 µM	≤ 2 µM	≤ 2 µM	≤ 2 µM
C=C1CN2CCC[C@@]2(COc2nc3c4c(c(C(F)(F)F)c(-c5ccc(F)c6sc(N)c(C#N)c56)c(F)c4n2)OCCN3[C@H](C)c2cc(Cl)cnc2N)C1 [Compound 690, 2-amino-4-(4-((R)-1-(2-amino-5-chloropyridin-3-yl)ethyl)-10-fluoro-2-(((S)-2-methylenetetrahydro-1H-pyrrolizin-7a(5H)-yl)methoxy)-8-(trifluoromethyl)-5,6-dihydro-4H-[1,4]oxazepino[5,6,7-de]quinazolin-9-yl)-7-fluorobenzo[b]thiophene-3-carbonitrile]	≤ 2 µM	≤ 2 µM	≤ 2 µM	≤ 2 µM
C[C@H](c1cccnc1N)N1CCOc2c(Cl)c(-c3ccc(F)c4sc(N)c(C#N)c34)c(F)c3nc(OC[C@@]45CCCN4CC(=C(F)F)C5)nc1c23 (atropisomer, axis not shown) [Compound 636, 2-amino-4-((R)-4-((R)-1-(2-aminopyridin-3-yl)ethyl)-8-chloro-2-(((S)-2-(difluoromethylene)tetrahydro-1H-pyrrolizin-7a (5H)-yl)methoxy)-10-fluoro-5,6-dihydro-4H-[1,4]oxazepino[5,6,7-de]quinazolin-9-yl)-7-fluorobenzo[b]thiophene-3-carbonitrile]	≤ 2 µM	≤ 2 µM	≤ 2 µM	≤ 2 µM
C[S+]([O-])CCC[C@H](c1cccnc1N)N1CCOc2c(C(F)(F)F)c(-c3ccc(F)c4sc(N)c(C#N)c34)c(F)c3nc(OC[C@@]45CCCN4C[C@H](F)C5)nc1c23 (mixture of isomers) [Compound 691, 2-amino-4-(4-((1R)-1-(2-aminopyridin-3-yl)-4-(methylsulfinyl)butyl)-10-fluoro-2-(((2R,7aS)-2-fluorotetrahydro-1H-pyrrolizin-7a(5H)-yl)methoxy)-8-(trifluoromethyl)-5,6-dihydro-4H-[1,4]oxazepino[5,6,7-de]quinazolin-9-yl)-7-fluorobenzo[b]thiophene-3-carbonitrile]	≤ 2 µM	≤ 2 µM	≤ 2 µM	≤ 2 µM

Second part, the compound after the results:

IC50 [1]	IC50 [2]	IC50 [3]	IC50 [4]	Structure (SMILES)
≤ 2 µM	≤ 2 µM	≤ 2 µM	≤ 2 µM	N#Cc1c(N)sc2c(F)ccc(-c3c(Cl)c4c5c(nc(OC[C@@]67CCCN6C[C@H](F)C7)nc5c3F)N(Cc3cccnc3N)C3COCC3CO4)c12 (mixture of isomers) [Compound 868, 2-amino-4-(12-((2-aminopyridin-3-yl)methyl)-6-chloro-4-fluoro-2-(((2R,7aS)-2-fluorotetrahydro-1H-pyrrolizin-7a (5H)-yl)methoxy)-8a,9,11a, 12-tetrahydro-8H, 11H-furo[3′,4′: 6,7][1,5]oxazocino[4,3,2-de]quinazolin-5-yl)-7-fluorobenzo[b]thiophene-3-carbonitrile]
≤ 2 µM	≤ 2 µM	≤ 2 µM	≤ 2 µM	C[C@H](c1cccnc1N)N1CCOc2c(Cl)c(-c3ncc(F)c4sc(N)c(C#N)c34)c(F)c3nc(OC[C@@]45CCCN4C[C@H](F)C5)nc1c23 (single isomer, unassigned) [Compound 825]
≤ 2 µM	≤ 2 µM	≤ 2 µM	≤ 2 µM	N#Cc1c(N)sc2c(F)ccc(-c3c(Cl)c4c5c(nc(OC[C@@]67CCCN6C[C@H](F)C7)nc5c3F)N([C@H](C/C=C\C(F)(F)F)c3cccnc3N)CCO4)c12 [Compound 845, 2-amino-4-(4-((R,Z)-1-(2-aminopyridin-3-yl)-5,5,5-trifluoropent-3-en-1-yl)-8-chloro-10-fluoro-2-(((2R,7aS)-2-fluorotetrahydro-1H-pyrrolizin-7a(5H)-yl)methoxy)-5,6-dihydro-4H-[1,4]oxazepino[5,6,7-de]quinazolin-9-yl)-7-fluorobenzo[b]thiophene-3-carbonitrile]
≤ 2 µM	≤ 2 µM	≤ 2 µM	≤ 2 µM	C[C@H](c1cccnc1N)N1CCOc2c(C(F)(F)F)c(-c3cc(F)c(F)c4sc(N)c(C#N)c34)c(F)c3nc(OC[C@@]45CCCN4C[C@H](F)C5)nc1c23 (single isomer, unassigned) [Compound 853]
> 2 µM	> 2 µM	> 2 µM	> 2 µM	N#Cc1c(N)sc2cccc(-c3c(Cl)c4c5c(nc(OC[C@@]67CCCN6C[C@H](F)C7)nc5c3F)N([C@@H](c3cccnc3N)C(F)F)CCO4)c12 (single isomer, unassigned) [Compound 802]
≤ 2 µM	≤ 2 µM	≤ 2 µM	≤ 2 µM	C[C@H](c1nccnc1N)N1CCOc2c(C(F)(F)F)c(-c3ccc(F)c4sc(N)c(C#N)c34)c(F)c3nc(OC[C@@]45CCCN4CC(=C(F)F)C5)nc1c23 [Compound 876, 2-amino-4-(4-((R)-1-(3-aminopyrazin-2-yl)ethyl)-2-(((S)-2-(difluoromethylene)tetrahydro-1H-pyrrolizin-7a(5H)-yl)methoxy)-10-fluoro-8-(trifluoromethyl)-5,6-dihydro-4H-[1,4]oxazepino[5,6,7-de]quinazolin-9-yl)-7-fluorobenzo[b]thiophene-3-carbonitrile]
